In paper PMC3836994, “Killer Bee Molecules: Antimicrobial Peptides as Effector Molecules to Target Sporogonic Stages of Plasmodium” (PLoS Pathogens, 2013):
No end group written: not given here.

Experiments:
P. falciparum = assay: Cultured P. falciparum gametocytes membrane-fed to An. gambiae (oocyst prevalence and intensity); type: in vivo, Plasmodium falciparum; conditions: 50 µM; for Oocyst intensity (mean number of oocysts per gut, range in parentheses), peptide / Oocyst prevalence (oocyst positive mosquitoes), peptide: cultured gametocytes, An. gambiae
Method: P. falciparum NF54 gametocytes were produced through large-scale automated culture at the Pasteur Institute, Paris, [69]. Gametocytes were grown in 10 ml RPMI 1640 medium (Invitrogen), supplemented with 25 mM HEPES and L-glutamine, 10% heat-inactivated human serum and hypoxanthine (20 mg/L) under a constant gas supply (5% CO2, 1% O2, 94% N2). Fresh red blood cells (RBCs) were added to obtain a 7% haematocrit. Fourteen days after initiating the culture, gametocyte maturity was assessed on thin Giemsa-stained blood smears, and male gametocyte maturity verified by exflagellation tests. Gametocyte cultures were centrifuged for 5 min at 1500 rpm and the ∼500–600 µl pellet resuspended in fresh RBCs and AB human serum to give a final haematocrit of 40%.
Blood containing mature gametocytes (475 µl) was added to 25 µl of the test AMP (50 µM final concentration). Peptides were replaced by 25 µl of sterile deionized water for each control. The blood/parasite/peptide mixture was placed in a Hemotek membrane feeder, previously warmed to 37°C. For each feed, 70 to 100 nulliparous female An. gambiae mosquitoes were left to feed in the dark for 15 min and only fully engorged females were transferred to small cages and provided with 10% sucrose containing 0.05% PABA. After 8 days, 30 midguts were dissected and stained with bromo fluorescein for the detection of oocysts.

P. berghei = P. berghei infections in Anopheles stephensi (oocyst prevalence and intensity); type: in vivo, Plasmodium berghei; conditions: for Prevalence (proportion of infected mosquitoes), peptide: 50 µM peptide in gametocytaemic mouse blood fed to An. stephensi; for Intensity (mean number of oocysts, range in parentheses), peptide: 50 µM peptide, An. stephensi
Method: To assess the effects of AMPs on parasites in vivo, mouse blood containing P. berghei gametocytes was obtained by cardiac puncture and 475 µl was rapidly mixed with 25 µl (50 µM final concentration) of AMP. This mixture was fed to 100 nulliparous 3–5 day old female An. stephensi. A further 475 µl of blood from the same infection was mixed with 25 µl of distilled water to act as a control. Mosquitoes were maintained at 19°C for optimum parasite development. Between 30 and 50 mosquitoes were dissected after 10 days. Mosquito wing length, numbers of retained eggs and oocysts were recorded in triplicate experiments carried out on different mosquito cohorts.

| Sequence | Oocyst intensity (mean number of oocysts per gut, range in parentheses), peptide (P. falciparum; Replicate 1) | Oocyst prevalence (oocyst positive mosquitoes), peptide (P. falciparum; Replicate 1, dissected after 8 days) | Oocyst intensity (mean number of oocysts per gut, range in parentheses), peptide (P. falciparum; Replicate 2) | Oocyst prevalence (oocyst positive mosquitoes), peptide (P. falciparum; Replicate 2) | Oocyst intensity (mean number of oocysts per gut, range in parentheses), peptide (P. falciparum; Replicate 3) | Oocyst prevalence (oocyst positive mosquitoes), peptide (P. falciparum; Replicate 3) | Average reduction of intensity of infection (P. falciparum; over three replicates) [%] | Average reduction of prevalence (P. falciparum; over three replicates) [%] | Prevalence (proportion of infected mosquitoes), peptide (P. berghei; Replicate 1) | Intensity (mean number of oocysts, range in parentheses), peptide (P. berghei; Replicate 1) | Prevalence (proportion of infected mosquitoes), peptide (P. berghei; Replicate 2) | Intensity (mean number of oocysts, range in parentheses), peptide (P. berghei; Replicate 2) | Prevalence (proportion of infected mosquitoes), peptide (P. berghei; Replicate 3) | Intensity (mean number of oocysts, range in parentheses), peptide (P. berghei; Replicate 3) |
| --- | --- | --- | --- | --- | --- | --- | --- | --- | --- | --- | --- | --- | --- | --- |
| AGYLLGKINLKALAALAKKILGGAGYLLGKINLKALAALAKKIL [TP10 dimer, TP10 (dimer)] | <1 (0–2) | 17% (30) | 0 | 0% (30) | 2 (0–14) | 37% (30) | 82 | 60 | 56% (50) | 2 (0–84) | 66% (50) | 4 (0–67) | 56% (50) | 2 (0–13) |
| KFPKFRRGIPFLFVGPSGKFPKFRRGIPFLFV [Vida 3 dimer] | – | – | – | – | – | – | – | – | 33% (40) | 1 (0–6) | 80% (50) | 37 (0–271) | 76% (50) | 4 (0–67) |
